Source: patent US20260215423A1, “NOVEL CARBOXAMIDE AND SULFONAMIDE PESTICIDAL COMPOUNDS” (SYNGENTA CROP PROTECTION AG, priority 2023, published 2026)

Columns and labels:
Type in all cases: in vivo
[1] = system: Myzus persicae (Green Peach Aphid); test: Myzus persicae (Green Peach Aphid). Intrinsic Activity; settings: 120 h, test rate of 12 ppm, mixed with sucrose solution, feeding through Parafilm, 5 days after infestation
From the text: Example B7: Myzus persicae (Green Peach Aphid). Intrinsic Activity
Test compounds prepared from 10′000 ppm DMSO stock solutions were applied by pipette into 24-well microtiter plates and mixed with sucrose solution. The plates were closed with a stretched Parafilm. A plastic stencil with 24 holes was placed onto the plate and infested pea seedlings were placed directly on the Parafilm. The infested plate was closed with a gel blotting paper and another plastic stencil and then turned upside down. The samples were assessed for mortality 5 days after infestation.

[2] = system: Myzus persicae (Green Peach Aphid); test: Myzus persicae (Green Peach Aphid): Feeding/Contact Activity, sunflower leaf discs; settings: foliar, 144 h, application rate of 200 ppm, sunflower leaf discs sprayed, aphid population of mixed ages, 6 days after infestation
Description: Example B6: Myzus persicae (Green Peach Aphid):Feeding/Contact Activity
Sunflower leaf discs were placed onto agar in a 24-well microtiter plate and sprayed with aqueous test solutions prepared from 10′000 ppm DMSO stock solutions. After drying, the leaf discs were infested with an aphid population of mixed ages. The samples were assessed for mortality 6 days after infestation.

[3] = system: Myzus persicae (Green Peach Aphid); test: Myzus persicae (Green Peach Aphid) Feeding/Contact Activity, eggplant leaf discs; settings: foliar, 144 h, application rate of 200 ppm, eggplant leaf discs sprayed, aphid population of mixed ages, 6 days after infestation, read-out: growth inhibition
From the text: Example B8: Myzus persicae (Green Peach Aphid) Feeding/Contact Activity Eggplant leaf discs were placed onto agar in a 24-well microtiter plate and sprayed with aqueous test solutions prepared from 10′000 ppm DMSO stock solutions. After drying, the leaf discs were infested with an aphid population of mixed ages. […]

[4] = system: Plutella xylostella (Diamond back moth); test: Plutella xylostella (Diamond back moth); settings: 192 h, application rate of 200 ppm, artificial diet treated by pipetting, Plutella eggs, 8 days after infestation, read-out: effect in at least one of the two categories (mortality or growth inhibition)
Description: After drying, Plutella eggs were pipetted through a plastic stencil onto a gel blotting paper and the plate was closed with it. The samples were assessed for mortality and growth inhibition in comparison to untreated samples 8 days after infestation.

[5] = system: Spodoptera littoralis (Egyptian Cotton Leaf Worm); test: Spodoptera littoralis (Egyptian Cotton Leaf Worm); settings: foliar, 72 h, application rate of 200 ppm, cotton leaf discs sprayed, five L1 larvae, 3 days after infestation, read-out: control (mortality, anti-feeding effect, growth inhibition)
Description: Example B10: Spodoptera littoralis (Egyptian Cotton Leaf Worm)
Cotton leaf discs were placed onto agar in 24-well microtiter plates and sprayed with aqueous test solutions prepared from 10′000 ppm DMSO stock solutions. After drying the leaf discs were infested with five L1 larvae. The samples were assessed for mortality, anti-feeding effect, and growth inhibition in comparison to untreated samples 3 days after infestation. Control of Spodoptera littoralis by a test sample is given when at least one of the categories mortality, anti-feedant effect, and growth inhibition is higher than the untreated sample.

[6] = system: Euschistus heros (Neotropical Brown Stink Bug); test: Euschistus heros (Neotropical Brown Stink Bug); settings: 120 h, application rate of 200 ppm, soybean leaves sprayed, N2 nymphs, 5 days after infestation, read-out: effect in at least one of the two categories (mortality or growth inhibition)
Description: Example B3: Euschistus heros (Neotropical Brown Stink Bug)
Soybean leaves on agar in 24-well microtiter plates were sprayed with aqueous test solutions prepared from 10′000 ppm DMSO stock solutions. After drying the leaves were infested with N2 nymphs. The samples were assessed for mortality and growth inhibition in comparison to untreated samples 5 days after infestation.

[7] = system: Frankliniella occidentalis (Western Flower Thrips); test: Frankliniella occidentalis (Western Flower Thrips) Feeding/Contact Activity, bean leaf discs; settings: foliar, 96 h, application rate of 200 ppm, bean leaf discs sprayed, population of mixed ages, 4 days after infestation, read-out: growth inhibition
Description: Example B5: Frankliniella occidentalis (Western Flower Thrips) Feeding/Contact Activity Bean leaf discs were placed on agar in 24-well microtiter plates and sprayed with aqueous test solutions prepared from […] stock solutions. After drying the leaf discs were infested with a Frankliniella population of mixed ages. The samples were assessed for mortality 4 days after infestation.

[8] = system: Tetranychus urticae (Two-Spotted Spider Mite); test: Tetranychus urticae (Two-Spotted Spider Mite): Feeding/Contact Activity; settings: foliar, 192 h, application rate of 200 ppm, bean leaf discs sprayed, mite population of mixed ages (mobile stages), 8 days after infestation
Description: Example B11: Tetranychus urticae (Two-Spotted Spider Mite):Feeding/Contact Activity
Bean leaf discs on agar in 24-well microtiter plates were sprayed with aqueous test solutions prepared from 10,000 ppm DMSO stock solutions. After drying the leaf discs were infested with a mite population of mixed ages. The samples were assessed for mortality on mixed population (mobile stages) 8 days after infestation.

[9] = system: Diabrotica balteata (Corn root worm); test: Diabrotica balteata (Corn root worm); settings: 96 h, application rate of 200 ppm, maize sprouts sprayed, L2 larvae, 4 days after infestation, read-out: effect in at least one of the two categories (mortality or growth inhibition)
Description: Example B2: Diabrotica balteata (Corn root worm)
Maize sprouts placed onto an agar layer in 24-well microtiter plates were treated with aqueous test solutions prepared from 10′000 ppm DMSO stock solutions by spraying. After drying, the plates were infested with L2 larvae (6 to 10 per well). The samples were assessed for mortality and growth inhibition in comparison to untreated samples 4 days after infestation.

[10] = system: Frankliniella occidentalis (Western Flower Thrips); test: Frankliniella occidentalis (Western Flower Thrips): Feeding/Contact Activity, sunflower leaf discs; settings: foliar, 168 h, application rate of 200 ppm, sunflower leaf discs sprayed, population of mixed ages, 7 days after infestation
Description: Example B4: Frankliniella occidentalis (Western Flower Thrips):Feeding/Contact Activity
Sunflower leaf discs were placed on agar in 24-well microtiter plates and sprayed with aqueous test solutions prepared from […] stock solutions. After drying the leaf discs were infested with a Frankliniella population of mixed ages. The samples were assessed for mortality 7 days after infestation.

[11] = system: Bemisia tabaci (Cotton White Fly); test: Bemisia tabaci (Cotton White Fly): Feeding/Contact Activity; settings: foliar, 144 h, application rate of 200 ppm, cotton leaf discs sprayed, adult white flies, 6 days after incubation
Description: Example B1: Bemisia tabaci (Cotton White Fly): Feeding/Contact Activity
Cotton leaf discs were placed on agar in 24-well microtiter plates and sprayed with aqueous test solutions prepared from 10′000 ppm DMSO stock solutions. After drying the leaf discs were infested with adult white flies. The samples were checked for mortality 6 days after incubation.

CCC(=O)NCc1cc(OC[C@H](C)N(COC)S(=O)(=O)C(F)(F)F)cnc1Cl [P-5, N-[[2-chloro-5-[(2S)-2-[methoxymethyl(tri-fluoromethylsulfonyl)-amino]propoxy]-3-pyridyl]methyl]propan-amide]
≥ 80%: mortality at 12 ppm [1] | mortality at 200 ppm [2] | inhibition at 200 ppm [3]

CCC(=O)NCc1cc(OC[C@H](C)N(C(=O)CC)S(=O)(=O)C(F)(F)F)ccc1Cl [P-18, N-[[2-chloro-5-[(2S)-2-[propanoyl(trifluoro-methylsulfonyl)amino]propoxy]phenyl]methyl] propanamide]
≥ 80%: mortality at 12 ppm [1] | percent effect (mortality or growth inhibition) at 200 ppm [4] | mortality at 200 ppm [5] | percent effect (mortality or growth inhibition) at 200 ppm [6] | inhibition at 200 ppm [7] | mortality at 200 ppm [8] | inhibition at 200 ppm [3] | percent effect (mortality or growth inhibition) at 200 ppm [9]

CCC(=O)NCc1cc(OC[C@H](C)NS(=O)(=O)C(F)(F)F)ccc1Cl [P-4]
≥ 80%: mortality at 12 ppm [1] | percent effect (mortality or growth inhibition) at 200 ppm [4] | mortality at 200 ppm [2] | percent effect (mortality or growth inhibition) at 200 ppm [6] | mortality at 200 ppm [10] | mortality at 200 ppm [8] | inhibition at 200 ppm [3] | percent effect (mortality or growth inhibition) at 200 ppm [9]

CCC(=O)NCc1cc(OC[C@H](C)N(COC)S(=O)(=O)C(F)(F)F)ccc1Cl [P-3, N-[[2-chloro-5-[(2S)-2-[methoxymethyl(tri-fluoromethylsulfonyl)-amino]propoxy]phenyl]methyl]propanamide]
≥ 80%: mortality at 12 ppm [1] | percent effect (mortality or growth inhibition) at 200 ppm [4] | mortality at 200 ppm [2] | percent effect (mortality or growth inhibition) at 200 ppm [6] | mortality at 200 ppm [11] | mortality at 200 ppm [10] | mortality at 200 ppm [8] | inhibition at 200 ppm [3] | percent effect (mortality or growth inhibition) at 200 ppm [9]

CCC(=O)NC(C)(C)c1cc(OC[C@H](C)NS(=O)(=O)C(F)(F)F)ccc1Cl [P-15, N-[1-[2-chloro-5-[(2S)-2-(trifluoromethylsul-fonylamino)propoxy]phenyl]-1-methylethyl] propanamide]
≥ 80%: mortality at 200 ppm [8]

C[C@@H](COc1cnc(Cl)c(CNC(=O)C2CC(F)(F)C2)c1)NS(=O)(=O)C(F)(F)F [P-35, N-[[2-chloro-5-[(2S)-2-(trifluoromethylsul-fonylamino)propoxy]-3-pyridyl]methyl]-3,3-difluoro-cyclobutane-carboxamide]
≥ 80%: inhibition at 200 ppm [7] | inhibition at 200 ppm [3]

C[C@@H](COc1ccc(Cl)c(CNC(=O)C2CC2)c1)NS(=O)(=O)C(F)(F)F [P-2]
≥ 80%: mortality at 12 ppm [1] | percent effect (mortality or growth inhibition) at 200 ppm [4] | mortality at 200 ppm [2] | mortality at 200 ppm [8] | inhibition at 200 ppm [3]

C[C@@H](COc1cnc(Cl)c(CNC(=O)C2CCC2)c1)NS(=O)(=O)C(F)(F)F [P-24]
≥ 80%: mortality at 12 ppm [1] | inhibition at 200 ppm [7] | inhibition at 200 ppm [3]

CCC(=O)NCc1cc(OC[C@H](C)NS(=O)(=O)C(F)(F)F)cnc1Cl [P-1]
≥ 80%: mortality at 12 ppm [1] | mortality at 200 ppm [2]

C[C@@H](COc1cnc(Cl)c(CNC(=O)C2CCC2(F)F)c1)NS(=O)(=O)C(F)(F)F (stereo partly shown) [P-22]
≥ 80%: inhibition at 200 ppm [7]

C[C@@H](COc1cnc(Cl)c(CNC(=O)C23CC(C(F)(F)F)(C2)C3)c1)NS(=O)(=O)C(F)(F)F [P-25, N-[[2-chloro-5-[(2S)-2-(trifluoromethylsulfon-ylamino)propoxy]-3-pyridyl]methyl]-3-(tri-fluoromethyl)bicyclo [1.1.1]pentane-1-carbox-amide]
≥ 80%: inhibition at 200 ppm [7]
